Literature values, collected in patent US6676959B1, “Nicotine-containing pharmaceutical compositions giving a rapid transmucosal absorption” (priority 1998, dated 2004).

Conditions: after starting smoking

## CN1CCCC1c1cccnc1 (stereo not shown) [nicotine]
  Time to peak blood levels of nicotine: 5 to 10 min
